Data taken from PubChem BioAssay AID434996 (Southern Research Specialized Biocontainment Screening …, 2010).
The source made the active and inactive calls.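 Rule for the calls: active = inhibition above 30% at one or more tested concentrations in the dose response; inactive = inhibition below 30% at every tested concentration.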

test system: S. Typhimurium PhoP-regulated promoter GFP reporter, 4 h; test: PhoP regulon inhibitors in S. Typhimurium, SAR follow-up, synthesized compounds, round 3, GFP (AID 434996); settings: not given

IC50 | Structure (SMILES)
148 µM | O=C(Nc1ccc(I)cc1)N1CCCN(Cc2ccccc2F)C1
29.2 µM | S=C(NCCc1ccc(Cl)cc1)Nc1ccncc1
135 µM | O=C(Nc1ccc(Cl)cc1)N1CCCN(Cc2ccc(Br)cc2)C1

test system: not listed separately; test: as above; settings: S. Typhimurium PhoP-regulated promoter GFP reporter, 4 h; at 150 µM (top of the series)

Structure (SMILES) | inhibition
N#Cc1ccccc1NC(=S)NCc1ccc(Cl)cc1 | -0.55% (inactive)
O=C(Nc1ccc(Cl)cc1)N1CCCN(Cc2ccccc2Br)C1 | 26.3% (inactive)
Cc1ccc(NC(=O)N2CCCN(Cc3ccccc3F)C2)cc1 | -3.01% (inactive)
O=C(Nc1cccc(I)c1)N1CCCN(Cc2ccccc2F)C1 | 20.6% (inactive)
N#Cc1ccc(NC(=S)NCc2ccc(Cl)cc2)cc1 | -4.09% (inactive)
O=C(Nc1cccc(C(F)(F)F)c1)N1CCCN(Cc2ccccc2F)C1 | 8.93% (inactive)
Cc1ccccc1CNC(=S)Nc1ccncc1 | 15.3% (inactive)
O=C(Nc1cccc(F)c1)N1CCCN(Cc2ccccc2F)C1 | 23.5% (inactive)
Cc1cccc(NC(=O)N2CCCN(Cc3ccccc3F)C2)c1 | 21.2% (inactive)
